This note sets out measurements from US20260184690A1, “Substituted Heterocyclic Compounds” (Bristol-Myers Squibb Company, priority 2022, published 2026).

Like-named read-outs stand apart in the source and are kept apart here.

Data set [1] concerns IFNα-induced pSTAT5 in human whole blood (CD3 positive population). Kind of data set: IFNα-induced STAT phosphorylation in human whole blood. As to conditions: 1 h compound incubation, 1000 U/mL IFNα A/D for 15 min, CD3+ gate, read-out: Human Whole blood IFNa pSTAT5 IC50. Format: cell-based. As for the experimental part:
After an hour long incubation with compound, human whole blood (drawn with ACD-A as anticoagulant) was stimulated with 1000 U/mL recombinant human IFNα A/D (R&D Systems 11200-2) for 15 min. The stimulation was stopped by adding Fix/Lyse buffer (BD 558049). Cells were stained with a CD3 FITC antibody (BD 555916), washed, and permeabilized on ice using Perm III buffer (BD 558050). Cells were then stained with an Alexa-Fluor 647 pSTAT5 (pY694) antibody (BD 612599) for 60 min prior to analysis on the iQue Plus. The amount of pSTAT5 expression was quantitated by median fluorescence intensity after gating on the CD3 positive population.

The subject of data set [2] is Caco-2 cells. Kind of data set: Bidirectional permeability assay in Caco-2 cells. The note with it: 3 μM, pH 7.4, 0.5% BSA, 2 hours at 37° C.; for Caco-2 AB: apical-to-basolateral Pc. On the technique in general: Caco-2 cells form a polarised layer with tight junctions and transporters.
Data set [3] relates to Caco-2 cells. The note with it: human, Caco-2, 2 h, 3 μM, pH 7.4.
A short description of a further data set: in vitro. As to conditions: human, Caco-2, pH 7.4.

Usually IC50 stands for the point on the concentration scale where inhibition reaches its midpoint. With `CNC(=O)c1cnc(N2CCN(C(C)C)C2=O)cc1Nc1nccc(-c2cnn(C)n2)c1OC` [Example 2, 4-{[3-methoxy-4-(2-methyl-2H-1,2,3-triazol-4-yl)pyridin-2-yl]amino}-N-(^2H3)methyl-6-[2-oxo-3-(propan-2-yl)imidazolidin-1-yl]pyridine-3-carboxamide], the IC50 in data set [1] amounted to 26 nM.

For the compound `[2H]C([2H])([2H])NC(=O)c1cnc(N2CCN(C(C)C)C2=O)cc1Nc1nccc(-c2cnn(C)n2)c1OC` [Example 2, 4-{[3-methoxy-4-(2-methyl-2H-1,2,3-triazol-4-yl)pyridin-2-yl]amino}-N-(^2H3)methyl-6-[2-oxo-3-(propan-2-yl)imidazolidin-1-yl]pyridine-3-carboxamide], in the data set on Caco-2 cells [2], the Caco-2 efflux ratio is reported as 1.4 and the “Caco-2 AB” value is listed as 233 nm/s. Take `CNC(=O)c1cnc(N2CCN(C(C)C)C2=O)cc1Nc1cccc(-c2cnn(C)n2)c1OC` [Example 3, 4-{[2-methoxy-3-(2-methyl-2H-1,2,3-triazol-4-yl)phenyl]amino}-N-(^2H3)methyl-6-[2-oxo-3-(propan-2-yl)imidazolidin-1-yl]pyridine-3-carboxamide]: the IC50 in data set [1] was 77 nM. For the compound `[2H]C([2H])([2H])NC(=O)c1cnc(N2CCN(C(C)C)C2=O)cc1Nc1cccc(-c2cnn(C)n2)c1OC` [Example 3, 4-{[2-methoxy-3-(2-methyl-2H-1,2,3-triazol-4-yl)phenyl]amino}-N-(^2H3)methyl-6-[2-oxo-3-(propan-2-yl)imidazolidin-1-yl]pyridine-3-carboxamide], in the data set on Caco-2 cells [2], the Caco-2 efflux ratio was 0.7 and the “Caco-2 AB” value is recorded as 287 nm/s. With `CNC(=O)c1nnc(N2CCN(C3CC3)C2=O)cc1Nc1nccc(-c2cnn(C)n2)c1OC` [Example 4, 6-(3-cyclopropyl-2-oxoimidazolidin-1-yl)-4-{[3-methoxy-4-(2-methyl-2H-1,2,3-triazol-4-yl)pyridin-2-yl]amino}-N-(^2H3)methylpyridazine-3-carboxamide], the IC50 in data set [1] was found to be 26 nM. `[2H]C([2H])([2H])NC(=O)c1nnc(N2CCN(C3CC3)C2=O)cc1Nc1nccc(-c2cnn(C)n2)c1OC` [Example 4, 6-(3-cyclopropyl-2-oxoimidazolidin-1-yl)-4-{[3-methoxy-4-(2-methyl-2H-1,2,3-triazol-4-yl)pyridin-2-yl]amino}-N-(^2H3)methylpyridazine-3-carboxamide]: the “Caco-2 AB” value in the data set on Caco-2 cells [3] worked out at 576 nm/s. On to `CNC(=O)c1nnc(N2CCN(C3CC3)C2=O)cc1Nc1cccc(-c2cnn(C)n2)c1OC` [Example 5, 6-(3-cyclopropyl-2-oxoimidazolidin-1-yl)-4-{[2-methoxy-3-(2-methyl-2H-1,2,3-triazol-4-yl)phenyl]amino}-N-(^2H3)methylpyridazine-3-carboxamide], for which the IC50 in data set [1] stood at 95 nM. Turning to `[2H]C([2H])([2H])NC(=O)c1nnc(N2CCN(C3CC3)C2=O)cc1Nc1cccc(-c2cnn(C)n2)c1OC` [Example 5, 6-(3-cyclopropyl-2-oxoimidazolidin-1-yl)-4-{[2-methoxy-3-(2-methyl-2H-1,2,3-triazol-4-yl)phenyl]amino}-N-(^2H3)methylpyridazine-3-carboxamide], in the data set on Caco-2 cells [3], the “Caco-2 AB” value worked out at 361 nm/s. Consider `CNC(=O)c1cnc(N2CCN(C(F)(F)F)C2=O)cc1Nc1cccc(-c2cnn(C)n2)c1OC` [Example 6, 4-{[2-methoxy-3-(2-methyl-2H-1,2,3-triazol-4-yl)phenyl]amino}-N-(^2H3)methyl-6-[2-oxo-3-(trifluoromethyl)imidazolidin-1-yl]pyridine-3-carboxamide], for which the half-inhibitory concentration (IC50) in data set [1] came out at 800 nM. In the case of `[2H]C([2H])([2H])NC(=O)c1cnc(N2CCN(C(F)(F)F)C2=O)cc1Nc1cccc(-c2cnn(C)n2)c1OC` [Example 6, 4-{[2-methoxy-3-(2-methyl-2H-1,2,3-triazol-4-yl)phenyl]amino}-N-(^2H3)methyl-6-[2-oxo-3-(trifluoromethyl)imidazolidin-1-yl]pyridine-3-carboxamide], in the data set with Caco-2 cells [2], the Caco-2 efflux ratio is 0.6 and the “Caco-2 AB” value came to 118 nm/s.

In the case of `CNC(=O)c1nnc(N2CCN(C3CCC3)C2=O)cc1Nc1nccc(-c2cnn(C)n2)c1OC` [Example 7, 6-(3-cyclobutyl-2-oxoimidazolidin-1-yl)-4-{[3-methoxy-4-(2-methyl-2H-1,2,3-triazol-4-yl)pyridin-2-yl]amino}-N-(^2H3)methylpyridazine-3-carboxamide], the IC50 in data set [1] worked out at 47 nM. On to `[2H]C([2H])([2H])NC(=O)c1nnc(N2CCN(C3CCC3)C2=O)cc1Nc1nccc(-c2cnn(C)n2)c1OC` [Example 7, 6-(3-cyclobutyl-2-oxoimidazolidin-1-yl)-4-{[3-methoxy-4-(2-methyl-2H-1,2,3-triazol-4-yl)pyridin-2-yl]amino}-N-(^2H3)methylpyridazine-3-carboxamide], for which, in the data set with Caco-2 cells [3], the “Caco-2 AB” value stood at 139 nm/s. A word on the Papp A→B: it is the apparent permeability from the apical to the basolateral side of a cell layer. In general, efflux ratio refers to a quotient of directional permeabilities that is used to spot active efflux. As for `[2H]C([2H])([2H])NC(=O)c1nnc(N2CCN(C(C)C)C2=O)cc1Nc1nc(C)cc(-c2cnn(C)n2)c1OC` [Example 8, 6-(3-isopropyl-2-oxoimidazolidin-1-yl)-4-((3-methoxy-6-methyl-4-(2-methyl-2H-1,2,3-triazol-4-yl)pyridin-2-yl)amino)-N-(methyl-d3)pyridazine-3-carboxamide], the IC50 in data set [1] was 383 nM. Further, in the data set “in vitro”, the Papp A→B at 2 h, 3 μM turned out to be 15.4 ×10⁻⁶ cm/s and the efflux ratio at 2 h, 3 μM stood at 0.3.

Turning to `[2H]C([2H])([2H])NC(=O)c1nnc(N2CCN(C3CC3)C2=O)cc1Nc1nc(C)cc(-c2cnn(C)n2)c1OC` [Example 9, 6-(3-cyclopropyl-2-oxoimidazolidin-1-yl)-4-((3-methoxy-6-methyl-4-(2-methyl-2H-1,2,3-triazol-4-yl)pyridin-2-yl)amino)-N-(methyl-d3)pyridazine-3-carboxamide], the IC50 in data set [1] stood at 141 nM. In “in vitro”, the Papp A→B at 2 h, 3 μM was 13.7 ×10⁻⁶ cm/s and the efflux ratio at 2 h, 3 μM was determined as 0.2.
